Assays:
[1] = xn = mol fraction of the nth substance listed; conditions: 101 kPa, Liquid
[2] = refractive index (Na D-line) (dimensionless); conditions: 298.15 K; 101.33 kPa; Liquid; Standard Abbe refractometry
[3] = 101.33 kPa, Liquid

CO [methanol] + CCO
mass density [kg/m3], [1]
Conditions | x1 = 0.0729 | x1 = 0.1632 | x1 = 0.3251 | x1 = 0.5592 | x1 = 0.6349 | x1 = 0.7182 | x1 = 0.8027 | x1 = 0.8714 | x1 = 0.9485
283.15 K | 798.11 | 798.27 | 798.58 | 799.14 | 799.35 | 799.6 | 799.88 | 800.12 | 800.43
288.15 K | 793.83 | 793.97 | 794.22 | 794.68 | 794.85 | 795.07 | 795.3 | 795.51 | 795.78
293.15 K | 789.54 | 789.64 | 789.84 | 790.2 | 790.34 | 790.52 | 790.71 | 790.89 | 791.1
298.15 K | 785.23 | 785.3 | 785.44 | 785.7 | 785.81 | 785.95 | 786.11 | 786.25 | 786.43
303.15 K | 780.89 | 780.94 | 781.02 | 781.19 | 781.26 | 781.36 | 781.49 | 781.59 | 781.73
308.15 K | 776.52 | 776.54 | 776.57 | 776.65 | 776.69 | 776.76 | 776.84 | 776.9 | 777.01
313.15 K | 772.12 | 772.11 | 772.09 | 772.08 | 772.09 | 772.12 | 772.16 | 772.19 | 772.26

O [water]
Conditions | refractive index
[2] | 1.3326

CO [methanol]
Conditions | refractive index
[2] | 1.327

[3]
Conditions | mass density [kg/m3]
283.15 K | 800.67
288.15 K | 795.98
293.15 K | 791.28
298.15 K | 786.57
303.15 K | 781.85
308.15 K | 777.1
313.15 K | 772.32

CCO [ethanol]
Conditions | refractive index
[2] | 1.3595

[3]
Conditions | mass density [kg/m3]
283.15 K | 797.99
288.15 K | 793.73
293.15 K | 789.47
298.15 K | 785.18
303.15 K | 780.87
308.15 K | 776.52
313.15 K | 772.14
